In the supplement of paper PMC10307832:

compound: Cc1cnc(CNC(=O)c2c(=O)c3ccc(N4CCCN(C)CC4)nc3n3c2sc2ccccc23)cn1 [CX-5461] + Nc1nc2[nH]cc(CCc3ccc(C(=O)N[C@@H](CCC(=O)O)C(=O)O)cc3)c2c(=O)[nH]1 [Pemetrexed] (partner 0.2 µM); assay: relative viability (nuclei count vs DMSO), 5 days (fraction); higher = more cells survive; conditions: first compound 0.01 µM
Method in brief: (§1)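 Lung cancer cell lines were seeded in 1536-well plates and dosed by pin tool the next day, with either a single drug or a fixed anchor-drug dose combined with five library-drug doses (not always all listed) spaced in √10 steps. Five days later, one step fixed the cells and stained their nuclei (final 0.05% Triton X-100, 1% formaldehyde, 1 ug/ml Hoechst), and nuclei were counted on 4× images. Relative viability is the nuclei count in treated wells divided by the count in vehicle wells, and each value is the median of duplicate plates.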

Cell Line	relative viability
H3255	0.608
COR-L23	0.283
COR-L 105	1.13
LOU-NH91	0.35
ChaGo-K-1	0.251
NCI-H2405	1.06
HOP-62	0.236
LU99A	0.197
BEN	0.75
HARA	0.204
HCC-78	0.896
NCI-H322M	0.568
LCLC-97TM1	0.178
NCI-H2009	1.01
A-427	0.98
NCI-H441	0.261

Cell Line	relative viability
NCI-H661	0.928
NCI-H1734	0.404
NCI-H460	0.0543
NCI-H2347	0.396
SW 1573	0.88
201T	0.324
NCI-H1915	0.536
HCC-827	0.292
LXF-289	0.867
NCI-H23	0.524
NCI-H647	0.186
CAL-12T	1.29
NCI-H1651	0.551
EPLC-272H	0.319
NCI-H2228	0.355
NCI-H1355	1.08

same assay, conditions: first compound 0.03162 µM

Cell Line	relative viability
H3255	0.564
COR-L23	0.187
COR-L 105	0.943
LOU-NH91	0.377
ChaGo-K-1	0.256
NCI-H2405	0.892
HOP-62	0.384
LU99A	0.175
BEN	0.742
HARA	0.272
HCC-78	0.939
NCI-H322M	0.558
LCLC-97TM1	0.193
NCI-H2009	1.07
A-427	0.908
NCI-H441	0.268

Cell Line	relative viability
NCI-H661	0.902
NCI-H1734	0.435
NCI-H460	0.0602
NCI-H2347	0.42
SW 1573	0.845
201T	0.302
NCI-H1915	0.509
HCC-827	0.253
LXF-289	0.933
NCI-H23	0.862
NCI-H647	0.165
CAL-12T	1.29
NCI-H1651	0.6
EPLC-272H	0.382
NCI-H2228	0.369
NCI-H1355	1.08

same assay, conditions: first compound 0.1 µM

Cell Line	relative viability
H3255	0.553
COR-L23	0.207
COR-L 105	1.03
LOU-NH91	0.409
ChaGo-K-1	0.243
NCI-H2405	1
HOP-62	0.297
LU99A	0.159
BEN	0.711
HARA	0.27
HCC-78	0.904
NCI-H322M	0.708
LCLC-97TM1	0.196
NCI-H2009	0.964
A-427	0.927
NCI-H441	0.241

Cell Line	relative viability
NCI-H661	0.855
NCI-H1734	0.419
NCI-H460	0.0575
NCI-H2347	0.431
SW 1573	0.153
201T	0.329
NCI-H1915	0.487
HCC-827	0.268
LXF-289	0.847
NCI-H23	0.7
NCI-H647	0.176
CAL-12T	1.09
NCI-H1651	0.546
EPLC-272H	0.367
NCI-H2228	0.312
NCI-H1355	1.03

same assay, conditions: first compound 0.3162 µM

Cell Line	relative viability
H3255	0.557
COR-L23	0.157
COR-L 105	1.16
LOU-NH91	0.354
ChaGo-K-1	0.214
NCI-H2405	1.02
HOP-62	0.28
LU99A	0.188
BEN	0.759
HARA	0.208
HCC-78	0.907
NCI-H322M	0.567
LCLC-97TM1	0.103
NCI-H2009	1.01
A-427	0.967
NCI-H441	0.242

Cell Line	relative viability
NCI-H661	0.802
NCI-H1734	0.39
NCI-H460	0.0623
NCI-H2347	0.411
SW 1573	0.692
201T	0.318
NCI-H1915	0.496
HCC-827	0.225
NCI-H23	0.71
NCI-H647	0.194
CAL-12T	1.1
NCI-H1651	0.623
EPLC-272H	0.402
NCI-H2228	0.305
NCI-H1355	1.02

same assay, conditions: first compound 1 µM

Cell Line	relative viability
H3255	0.57
COR-L23	0.201
COR-L 105	0.706
LOU-NH91	0.344
ChaGo-K-1	0.255
NCI-H2405	0.911
HOP-62	0.321
LU99A	0.179
BEN	0.556
HARA	0.253
HCC-78	0.862
NCI-H322M	0.62
LCLC-97TM1	0.155
NCI-H2009	0.826
A-427	0.714
NCI-H441	0.226

Cell Line	relative viability
NCI-H661	0.722
NCI-H1734	0.432
NCI-H460	0.0755
NCI-H2347	0.41
SW 1573	0.203
201T	0.318
NCI-H1915	0.495
HCC-827	0.331
LXF-289	0.574
NCI-H23	0.508
NCI-H647	0.158
CAL-12T	0.86
NCI-H1651	0.18
EPLC-272H	0.377
NCI-H2228	0.182
NCI-H1355	0.853

compound: O=C(Nc1cc(C(F)(F)F)cc(C(F)(F)F)c1)c1cc(Cl)ccc1O [IMD-0354] + CC(C)C[C@H](NC(=O)[C@H](Cc1ccccc1)NC(=O)c1cnccn1)B(O)O [Bortezomib] (partner 0.002 µM); assay: as above; conditions: first compound 0.04 µM
Method in brief: as §1

Cell Line	relative viability
H3255	0.804
COR-L23	0.932
COR-L 105	0.757
LOU-NH91	0.5
ChaGo-K-1	1.39
NCI-H2405	1.04
HOP-62	0.954
LU99A	0.878
BEN	0.874
HARA	0.948
HCC-78	0.419
NCI-H322M	1.28
LCLC-97TM1	0.928
NCI-H2009	0.973
A-427	1.14
NCI-H661	0.968

Cell Line	relative viability
NCI-H1734	1.22
NCI-H460	0.893
NCI-H2347	0.741
SW 1573	1.38
201T	1.12
NCI-H1915	0.833
HCC-827	1.03
LXF-289	1.03
NCI-H23	1.09
NCI-H647	1.15
CAL-12T	1.03
NCI-H1651	0.828
EPLC-272H	0.966
NCI-H2228	0.946
NCI-H1355	1.42

same assay, conditions: first compound 0.1265 µM

Cell Line	relative viability
H3255	0.9
COR-L23	0.823
COR-L 105	0.663
LOU-NH91	0.498
ChaGo-K-1	1.21
NCI-H2405	1.04
HOP-62	0.836
LU99A	1.19
BEN	0.964
HARA	1.13
HCC-78	0.438
NCI-H322M	1.35
LCLC-97TM1	0.501
NCI-H2009	0.878
A-427	1.07
NCI-H441	0.848

Cell Line	relative viability
NCI-H661	0.718
NCI-H1734	1.17
NCI-H460	1.15
NCI-H2347	1.02
SW 1573	0.96
201T	1.1
NCI-H1915	1
HCC-827	1.07
LXF-289	0.833
NCI-H23	0.906
NCI-H647	1.08
CAL-12T	0.963
NCI-H1651	0.968
EPLC-272H	0.986
NCI-H2228	0.848
NCI-H1355	1.24

same assay, conditions: first compound 0.4 µM

Cell Line	relative viability
H3255	0.509
COR-L23	0.372
COR-L 105	0.76
LOU-NH91	0.492
ChaGo-K-1	0.67
NCI-H2405	0.732
HOP-62	0.661
LU99A	0.625
BEN	0.462
HARA	0.543
HCC-78	0.443
NCI-H322M	1.12
LCLC-97TM1	0.706
NCI-H2009	0.771
A-427	0.543
NCI-H441	0.218

Cell Line	relative viability
NCI-H661	0.719
NCI-H1734	0.385
NCI-H460	0.18
NCI-H2347	0.748
SW 1573	0.479
201T	0.928
NCI-H1915	0.396
HCC-827	0.825
LXF-289	0.757
NCI-H23	0.542
NCI-H647	0.439
CAL-12T	0.682
NCI-H1651	0.404
EPLC-272H	0.686
NCI-H2228	0.653
NCI-H1355	0.833

same assay, conditions: first compound 1.265 µM

Cell Line	relative viability
H3255	0.22
COR-L23	0.114
COR-L 105	0.239
LOU-NH91	0.303
ChaGo-K-1	0.326
NCI-H2405	0.498
HOP-62	0.227
LU99A	0.281
BEN	0.296
HARA	0.122
HCC-78	0.561
NCI-H322M	1.43
LCLC-97TM1	0.0804
NCI-H2009	0.105
A-427	0.369
NCI-H441	0.15

Cell Line	relative viability
NCI-H661	0.925
NCI-H1734	0.211
NCI-H460	0.0575
NCI-H2347	0.606
SW 1573	0.563
201T	0.924
NCI-H1915	0.738
HCC-827	0.462
LXF-289	0.291
NCI-H23	0.208
NCI-H647	0.169
CAL-12T	0.177
NCI-H1651	0.516
EPLC-272H	0.955
NCI-H2228	0.362
NCI-H1355	0.224

same assay, conditions: first compound 4 µM

Cell Line	relative viability
H3255	0.27
COR-L23	0.249
COR-L 105	0.274
LOU-NH91	0.319
ChaGo-K-1	0.39
NCI-H2405	0.302
HOP-62	0.0871
LU99A	0.186
BEN	0.217
HARA	0.213
HCC-78	0.382
NCI-H322M	0.264
LCLC-97TM1	0.242
NCI-H2009	0.0845
A-427	0.109
NCI-H441	0.0844

Cell Line	relative viability
NCI-H661	0.276
NCI-H1734	0.259
NCI-H460	0.0265
NCI-H2347	0.533
SW 1573	0.132
201T	0.361
NCI-H1915	0.183
HCC-827	0.347
LXF-289	0.131
NCI-H23	0.219
NCI-H647	0.128
CAL-12T	0.18
NCI-H1651	0.153
EPLC-272H	0.266
NCI-H2228	0.258
NCI-H1355	0.256

compound: O=C(Nc1cc(C(F)(F)F)cc(C(F)(F)F)c1)c1cc(Cl)ccc1O [IMD-0354] + Cc1nc(Nc2ncc(C(=O)Nc3c(C)cccc3Cl)s2)cc(N2CCN(CCO)CC2)n1 [Dasatinib] (partner 0.075 µM); assay: as above; conditions: first compound 0.04 µM
Method in brief: as §1

Cell Line	relative viability
H3255	0.303
